How the values were obtained:
premature LH-surge = assay: Open-label uncontrolled clinical trial of premature LH-surge prevention in COH with IVF and embryo transfer; assay type: in vivo, human; conditions: for prevention of premature LH-rises (above levels of 10 IU/L): day 6 of recombinant FSH treatment until day of hCG treatment
Protocol: An open-label, uncontrolled clinical trial is performed to investigate the efficacy, safety, and tolerability of premature LH-surge prevention in 30 female subjects undergoing COH and subsequent IVF and embryo transfer (ET), using a daily oral dosage of 40 mg mifepristone from day 6 of recombinant FSH treatment up to and including the day of hCG treatment and thrice daily intravaginal progesterone supplementation with 200 mg starting immediately after the hCG treatment for a period of up to 12 weeks. Although this treatment is suitable for all types of IVF patients (e.g. within the age range 18 to 45 years, with or without displaying polycystic ovarian syndrome and with or without a regular cycle), the following selection criteria are set forth in the investigation: healthy female partners of infertile couples; age at the time of screening between 20 and 39 years; a body mass index (BMI) between 19 and 29 kg/m^2; a regular menstrual cycle, and willing to give a written informed consent. Prior to the first administration of recombinant FSH a blood sample is taken for hormone analysis (estradiol and LH) and a standard urinary hCG assay is performed to exclude pregnancy. Recombinant FSH treatment is started at day 2 or 3 of menses onwards by a daily subcutaneous injection until the day of hCG administration. During the first 5 days of recombinant FSH treatment the dose is fixed at 150 IU. Starting at day 6, blood samples for hormone analysis are taken every two days prior to drug administration and ultrasonographic monitoring of follicle growth is performed to adjust, if necessary, the daily injectable dose of recombinant FSH. A subcutaneous injection with urinary hCG (5.000 IU) and an intramuscular injection of 50 mg progesterone are administered simultaneously, when at least three follicles exceed a diameter of 17 mm as measured by ultrasound scan and subsequently oocyte retrieval is performed 30-38 hours later. Using the procedure as set forth in example 1, with the proviso that, instead of using a daily dose of 40 mg mifepristone, mifepristone is used at a daily dose of 20 mg, a similar clinical outcome is obtained at a lower anti-P exposure level in the female subjects. […] Using the procedure as set forth in example 1, with the proviso that, instead of using a daily dose of 40 mg mifepristone, mifepristone is used at a daily dose of 10 mg, a similar clinical outcome is obtained at a lower anti-P exposure level in the female subjects.

endometrium = assay: Controlled clinical study of endometrial receptivity in oocyte donors undergoing COH (glandular dating, pinopodes); assay type: in vivo, human; conditions: endometrial biopsy day 7 after hCG injection
Protocol: An open-label, randomized and controlled clinical study is performed in oocyte donors undergoing COH and in whom premature LH-surges are prevented by either standard GnRH agonist treatment (5 oocyte donors) or mifepristone treatment (5 oocyte donors) with the objective to compare endometrial receptivity. In women treated with 40 mg orally administered mifepristone, the procedure as set forth in example 1 is used, with the proviso that instead of administering progesterone for 12 weeks, daily intravaginal progesterone supplementation with 400 mg is started immediately after the hCG treatment and continued until the day of endometrial biopsy (day 7 after hCG injection in donors). To oocyte donors in the reference group, undergoing COH and receiving GnRH agonist, treatment with GnRH agonist is started in the midluteal phase of the preceding menstrual cycle and given concomitantly with recombinant FSH from day 2 or 3 of the COH cycle up to and including the day of hCG treatment Vaginal progesterone supplementation is started in the GnRH-treated oocyte donors directly after oocyte retrieval (36-38 hours after hCG injection) and continued until the day of endometrial biopsy (day 7 after hCG injection). Endometrial samples are taken from all oocyte donors. […]

folliculogenesis = conditions: 50 mg/day tablets from cycle day 2 until hCG injection, with recombinant FSH; cited from earlier work
[1] = test system: midcycle gonadotropin surge; conditions: cited from earlier work
endogenous LH surge = assay: Clinical investigation: intramuscular progesterone instead of hCG to allow an endogenous LH surge in COH; assay type: in vivo, human
Protocol: An open-label, uncontrolled clinical investigation is performed in 5 healthy female volunteers undergoing COH and subsequent IVF and ET, using the procedure as set forth in example 1, with the proviso that in stead of administering hCG a single intramuscular injection of 50 mg progesterone is administered to allow an endogenous LH surge to occur, inducing resumption of meiosis and luteinisation.

uterine contractility = conditions: vaginal administration starting on the day of oocyte retrieval, compared with preovulatory values; cited from earlier work

Row | Structure (SMILES) | tolerability and adverse effects (premature LH-surge; 10 mg daily oral) | prevention of premature LH-rises (above levels of 10 IU/L) (premature LH-surge; 10 mg daily oral) | tolerability and adverse effects (premature LH-surge; 20 mg daily oral) | prevention of premature LH-rises (above levels of 10 IU/L) (premature LH-surge; 20 mg daily oral) | tolerability and adverse effects (premature LH-surge; 40 mg daily oral) | prevention of premature LH-rises (above levels of 10 IU/L) (premature LH-surge; 40 mg daily oral) | endometrial glandular dating (endometrium; hematoxylin and eosin staining) | presence of pinopodes (endometrium; scanning electron microscopy) | effect on follicular development (folliculogenesis) | occurrence of LH-surges prior to hCG injection (folliculogenesis) | timing of the midcycle gonadotropin surge and collapse of the dominant follicle ([1]; 1 mg/day for 5 or 15 days, starting when dominant follicle reached 14-16 mm) | emergence of periovulatory progesterone rise ([1]; 1 mg/day for 5 or 15 days) | oocyte quality at harvest (endogenous LH surge; harvested at 36-3836 hours after starting progesterone treatment) | occurrence of endogenous LH-surges (endogenous LH surge; single intramuscular injection of 50 mg, after 40 mg mifepristone COH procedure) | LH and FSH surges when added to RU486 ([1]; 5-10 mg/day, im, for 2 days, added to a 5-day course of RU486) | uterine contraction frequency on the day of embryo transfer (uterine contractility)
1 | CC#C[C@]1(O)CC[C@H]2[C@@H]3CCC4=CC(=O)CCC4=C3[C@@H](c3ccc(N(C)C)cc3)C[C@@]21C [mifepristone] | well tolerated and shows no adverse effects | efficacious in preventing premature LH-rises | well tolerated and shows no adverse effects | efficacious in preventing premature LH-rises | well tolerated and shows no adverse effects | efficacious in preventing premature LH-rises | typically in-phase glandular dating is observed | pinopodes are readily visible | arrests follicular development by delaying the growth of the dominant follicle | may prevent the occurrence of LH-surges | consistently delayed | delayed the emergence of periovulatory progesterone rise | – | – | – | –
2 | CC(=O)[C@H]1CC[C@H]2[C@@H]3CCC4=CC(=O)CC[C@]4(C)[C@H]3CC[C@]12C [progesterone] | – | – | – | – | – | – | – | – | – | – | – | – | retrieval of good quality oocytes | efficacious in allowing endogenous LH-surges to occur | readily induced LH and FSH surges and completely reversed the effects of RU486 at midcycle | induced a decrease in uterine contraction frequency

Reference: patent publication US20060217315A1, “Method of controlled ovarian hyperstimulation and pharmaceutical kit for use in such method” (priority 2001, published 2006)
